Broadly, the IC50 is the concentration that gives 50% inhibition. As usually defined, the Kd is the constant that tells how readily two partners part at equilibrium.

The record followed here is ChEMBL document CHEMBL4433250, “Structure-based design of potent linear peptide inhibitors of the YAP-TEAD protein-protein interaction derived from the YAP omega-loop sequence” (Bioorg Med Chem Lett, 2019).

The source made the active and inactive calls. The rule behind the calls is not given here. Where a SMILES comes first, the peptide text is derived from it. [ ]: non-standard residue; d: D form. Trp(6-Cl) = N[C@@H](Cc1c[nH]c2cc(Cl)ccc12)C(=O)O; Phe(3-F) = N[C@@H](Cc1cccc(F)c1)C(=O)O; 1Nal = N[C@@H](Cc1cccc2ccccc12)C(=O)O; Hyp = O=C(O)[C@@H]1C[C@@H](O)CN1; Cba = N[C@@H](CC1CCC1)C(=O)O; Nle = CCCC[C@H](N)C(=O)O; Ac3c = NC1(C(=O)O)CC1

The target in one assay is T1, Transcriptional enhancer factor TEF-3 (Homo sapiens, UniProt Q15561). Briefly: Inhibition of human TEAD4 (217 to 434 residues) expressed in Escherichia coli BL21 (DE3) interaction with N-biotinylated YAP (60 to 100 residues) incubated for 2 hrs by TR-FRET assay. For orientation: TR-FRET usually uses a lanthanide donor and a delayed reading to cut background.
T1 sequence (Q15561 whole entry, the tested form may be a part): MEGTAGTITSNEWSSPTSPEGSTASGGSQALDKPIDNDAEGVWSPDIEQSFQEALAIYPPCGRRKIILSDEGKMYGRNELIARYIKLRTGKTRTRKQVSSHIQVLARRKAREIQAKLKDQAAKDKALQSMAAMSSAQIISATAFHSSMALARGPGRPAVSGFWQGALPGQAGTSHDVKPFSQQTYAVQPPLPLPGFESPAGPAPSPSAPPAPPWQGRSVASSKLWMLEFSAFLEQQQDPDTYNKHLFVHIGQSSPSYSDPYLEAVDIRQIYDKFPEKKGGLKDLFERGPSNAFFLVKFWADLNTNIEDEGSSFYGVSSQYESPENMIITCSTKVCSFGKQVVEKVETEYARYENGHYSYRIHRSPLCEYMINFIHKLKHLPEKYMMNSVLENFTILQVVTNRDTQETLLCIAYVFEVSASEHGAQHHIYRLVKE
Consider `CCCC[C@H](NC(=O)[C@@H]1CCCN1)C(=O)N[C@@H](CCCNC(=N)N)C(=O)N[C@@H](CC(C)C)C(=O)N[C@@H](CCCNC(=N)N)C(=O)N[C@@H](CCCCN)C(=O)N[C@@H](CC(C)C)C(=O)N1CCC[C@H]1C(=O)N[C@@H](CC(=O)O)C(=O)N[C@@H](CO)C(=O)N[C@@H](Cc1ccccc1)C(=O)N[C@@H](Cc1ccccc1)C(=O)N[C@@H](CCCCN)C(=O)N1CCC[C@H]1C(=O)N1CCC[C@H]1C(=O)O` (H-P[Nle]RLRKLPDSFFKPP-OH), for which the half-maximal inhibitory concentration (IC50) is 67700 nM.
Same read-out and setting: for `CC(C)C[C@H](NC(=O)[C@H](CCCNC(=N)N)NC(=O)[C@H](Cc1c[nH]c2cc(Cl)ccc12)NC(=O)[C@@H]1CCCN1)C(=O)N[C@@H](CCCNC(=N)N)C(=O)N[C@@H](CCCCN)C(=O)N[C@@H](CC(C)C)C(=O)N1CCC[C@H]1C(=O)N[C@@H](CC(=O)O)C(=O)N[C@@H](CO)C(=O)N[C@@H](Cc1ccccc1)C(=O)N[C@@H](Cc1ccccc1)C(=O)N[C@@H](CCCCN)C(=O)N1CCC[C@H]1C(=O)N1CCC[C@H]1C(=O)O` (H-P[Trp(6-Cl)]RLRKLPDSFFKPP-OH) the value was 5830 nM.
Same read-out and setting: the figure for `CC(C)C[C@H](NC(=O)[C@H](CCCNC(=N)N)NC(=O)[C@H](Cc1c[nH]c2cc(Cl)ccc12)NC(=O)[C@@H]1CCCN1)C(=O)N[C@@H](CCCNC(=N)N)C(=O)N[C@@H](CCCCN)C(=O)N[C@@H](CC1CCC1)C(=O)N1CCC[C@H]1C(=O)N[C@@H](CC(=O)O)C(=O)N[C@@H](CO)C(=O)N[C@@H](Cc1ccccc1)C(=O)N[C@@H](Cc1cccc2ccccc12)C(=O)N[C@@H](CCCCN)C(=O)N[C@@H](CCC(=O)O)C(=O)N1CCC[C@H]1C(=O)O` (H-P[Trp(6-Cl)]RLRK[Cba]PDSF[1Nal]KEP-OH) is 45 nM; for `CC(C)C[C@H](NC(=O)[C@H](CCCNC(=N)N)NC(=O)[C@H](Cc1c[nH]c2cc(Cl)ccc12)NC(=O)[C@@H]1CCCN1)C(=O)N[C@@H](CCCNC(=N)N)C(=O)N[C@@H](CCCCN)C(=O)N[C@@H](CC1CCC1)C(=O)N1CCC[C@H]1C(=O)N[C@@H](CC(=O)O)C(=O)N[C@@H](CO)C(=O)N[C@@H](Cc1ccccc1)C(=O)N[C@@H](Cc1cccc2ccccc12)C(=O)N[C@@H](CCCCN)C(=O)N1CCC[C@H]1C(=O)N1CCC[C@H]1C(=O)O` (H-P[Trp(6-Cl)]RLRK[Cba]PDSF[1Nal]KPP-OH) it is 216 nM; for `CC(C)C[C@H](NC(=O)[C@H](CCCNC(=N)N)NC(=O)[C@H](Cc1c[nH]c2cc(Cl)ccc12)NC(=O)[C@@H]1CCCN1)C(=O)N[C@@H](CCCNC(=N)N)C(=O)N[C@@H](CCCCN)C(=O)N[C@@H](CC1CCC1)C(=O)N1C[C@H](O)C[C@H]1C(=O)N[C@@H](CC(=O)O)C(=O)N[C@@H](CO)C(=O)N[C@@H](Cc1ccccc1)C(=O)N[C@@H](Cc1cccc2ccccc12)C(=O)N[C@@H](CCCCN)C(=O)N[C@@H](CCC(=O)O)C(=O)N1CCC[C@H]1C(=O)O` (H-P[Trp(6-Cl)]RLRK[Cba][Hyp]DSF[1Nal]KEP-OH) it is 16 nM.
Still for that read-out and setting: the figure for `CCCC[C@H](NC(=O)[C@H](CCCCN)NC(=O)[C@H](CCCNC(=N)N)NC(=O)[C@H](CC(C)C)NC(=O)[C@H](CCCNC(=N)N)NC(=O)[C@H](Cc1c[nH]c2cc(Cl)ccc12)NC(=O)[C@@H]1CCCN1)C(=O)N1CCC[C@H]1C(=O)N[C@@H](CC(=O)O)C(=O)N[C@@H](CO)C(=O)N[C@@H](Cc1ccccc1)C(=O)N[C@@H](Cc1ccccc1)C(=O)N[C@@H](CCCCN)C(=O)N1CCC[C@H]1C(=O)N1CCC[C@H]1C(=O)O` (H-P[Trp(6-Cl)]RLRK[Nle]PDSFFKPP-OH) is 1560 nM; for `CCCC[C@H](NC(=O)[C@H](CCCCN)NC(=O)[C@H](CCCNC(=N)N)NC(=O)[C@H](CC(C)C)NC(=O)[C@H](CCCNC(=N)N)NC(=O)[C@H](Cc1c[nH]c2cc(Cl)ccc12)NC(=O)[C@@H]1CCCN1)C(=O)N1CCC[C@H]1C(=O)N[C@@H](CC(=O)O)C(=O)N[C@@H](CO)C(=O)N[C@@H](Cc1ccccc1)C(=O)N[C@@H](Cc1cccc2ccccc12)C(=O)N[C@@H](CCCCN)C(=O)N1CCC[C@H]1C(=O)N1CCC[C@H]1C(=O)O` (H-P[Trp(6-Cl)]RLRK[Nle]PDSF[1Nal]KPP-OH) it is 409 nM; for `CCCC[C@H](NC(=O)[C@H](CCCCN)NC(=O)[C@H](CCCNC(=N)N)NC(=O)[C@H](CC(C)C)NC(=O)[C@H](CCCNC(=N)N)NC(=O)[C@H](Cc1c[nH]c2cc(Cl)ccc12)NC(=O)[C@@H]1CCCN1)C(=O)N1CCC[C@H]1C(=O)N[C@@H](CC(=O)O)C(=O)N[C@@H](CO)C(=O)N[C@@H](Cc1cccc(F)c1)C(=O)N[C@@H](Cc1ccccc1)C(=O)N[C@@H](CCCCN)C(=O)N1CCC[C@H]1C(=O)N1CCC[C@H]1C(=O)O` (H-P[Trp(6-Cl)]RLRK[Nle]PDS[Phe(3-F)]FKPP-OH) it is 2400 nM.
In the case of `N=C(N)NCCC[C@H](NC(=O)[C@H](Cc1c[nH]c2cc(Cl)ccc12)NC(=O)[C@@H]1CCCN1)C(=O)NC1(C(=O)N[C@@H](CCCNC(=N)N)C(=O)N[C@@H](CCCCN)C(=O)N[C@@H](CC2CCC2)C(=O)N2C[C@H](O)C[C@H]2C(=O)N[C@@H](CC(=O)O)C(=O)N[C@@H](CO)C(=O)N[C@@H](Cc2ccccc2)C(=O)N[C@@H](Cc2cccc3ccccc23)C(=O)N[C@@H](CCCCN)C(=O)N[C@@H](CCC(=O)O)C(=O)N2CCC[C@H]2C(=O)O)CC1` (H-P[Trp(6-Cl)]R[Ac3c]RK[Cba][Hyp]DSF[1Nal]KEP-OH), the IC50 stood at 9 nM.
On the same count and under the same terms, for H-PMRLRKLPDSFFKPP-OH the value was 70000 nM.
On the same count and under the same terms, the figure for H-PWRLRKLPDSFFKPP-OH is 24200 nM.

The target in a further assay is T1, Transcriptional enhancer factor TEF-3. As to the kind of experiment: Inhibition of TEAD4 in human SF268 ::MCAT-Luc RGA model cells up to 20 uM by YAP/TEAD-dependent luciferase reporter gene assay. On the technique in general: A reporter such as luciferase makes a cellular process visible.
On to `CC(C)C[C@H](NC(=O)[C@H](CCCNC(=N)N)NC(=O)[C@H](Cc1c[nH]c2cc(Cl)ccc12)NC(=O)[C@@H]1CCCN1)C(=O)N[C@@H](CCCNC(=N)N)C(=O)N[C@@H](CCCCN)C(=O)N[C@@H](CC1CCC1)C(=O)N1C[C@H](O)C[C@H]1C(=O)N[C@@H](CC(=O)O)C(=O)N[C@@H](CO)C(=O)N[C@@H](Cc1ccccc1)C(=O)N[C@@H](Cc1cccc2ccccc12)C(=O)N[C@@H](CCCCN)C(=O)N[C@@H](CCC(=O)O)C(=O)N1CCC[C@H]1C(=O)O` (H-P[Trp(6-Cl)]RLRK[Cba][Hyp]DSF[1Nal]KEP-OH), for which the inhibition result was “inactive”.

Another assay shares this target. As to the kind of experiment: Binding affinity to Avi-tagged human TEAD4 (217 to 434 residues) expressed in Escherichia coli BL21 (DE3) by SPR assay. On the technique in general: In SPR one partner is held on a chip, and binding of the other changes the refractive index at the surface.
Turning to `CC(C)C[C@H](NC(=O)[C@H](CCCNC(=N)N)NC(=O)[C@H](Cc1c[nH]c2cc(Cl)ccc12)NC(=O)[C@@H]1CCCN1)C(=O)N[C@@H](CCCNC(=N)N)C(=O)N[C@@H](CCCCN)C(=O)N[C@@H](CC1CCC1)C(=O)N1C[C@H](O)C[C@H]1C(=O)N[C@@H](CC(=O)O)C(=O)N[C@@H](CO)C(=O)N[C@@H](Cc1ccccc1)C(=O)N[C@@H](Cc1cccc2ccccc12)C(=O)N[C@@H](CCCCN)C(=O)N[C@@H](CCC(=O)O)C(=O)N1CCC[C@H]1C(=O)O` (H-P[Trp(6-Cl)]RLRK[Cba][Hyp]DSF[1Nal]KEP-OH), the Kd came to 25 nM.
